Data reported in US11202776B2, “Treatment of gastroparesis with triazaspiro[4.5]decanone” (Millennium Pharmaceuticals, Inc., priority 2017, dated 2021).
Where a name gives a salt, the structure may show the parent alone. Read-outs that look alike come from different tables or passages of the source.

Experiments:
[1] = Phase I single-ascending dose (SAD) pharmacokinetics incl. food effect, plasma concentration of the Compound; type: in vivo, human; details: for half-life / AUC(0-inf) / AUC(0-t) / Cmax / Tmax: human, plasma
Experimental: (§1) A phase I randomized, double-blind, placebo-controlled, adaptive-design, single-ascending dose (SAD) and multiple-ascending dose (MAD) study was conducted in healthy human subjects to evaluate the safety, tolerability, pharmacokinetics (PK), pharmacodynamics (PD), food effect, and optimal oral dose of 3-((1-cyclohexyl-4-oxo-8-(4-oxo-4-phenylbutyl)-1,3,8-triazaspiro[4.5]decan-3-yl)methyl)benzoic acid maleate (hereinafter, “the Maleate Salt”). The SAD phase included an arm to evaluate food effect on the PK of the Maleate Salt. The SAD phase also evaluated the effect of the Maleate Salt on ECG parameters, including an assessment of QT-interval changes using exposure-response analysis.
(§2) The Maleate Salt was formulated in the study as immediate-release, hard gelatin capsules for oral administration. Each capsule contained 5 mg or 25 mg of the Maleate Salt, as well as microcrystalline cellulose NF (AVICEL® PH-102), sodium starch glycolate NF (EXPLOTAB®), and magnesium stearate NF, all filled into a size 3 hard gelatin capsule. A matching placebo containing the same amount of microcrystalline cellulose NF in place of the Maleate Salt was used in the study. The Maleate Salt capsules and matching placebo capsules were packaged in high-density polyethylene (HDPE) bottles with polypropylene caps and stored at controlled conditions per the USP.
(§3) A total of 54 subjects received at least 1 dose of the Maleate Salt, ranging from 5 mg to the maximum single PO dose of 300 mg. Six subjects received a maximum single PO dose of 300 mg and 5 subjects received a total of 900 mg of the Maleate Salt over 5-day period (100 mg BID for 4 days with single 100 mg on Day 5).
The SAD phase had 7 cohorts dosed at 5 mg (cohort 1), 10 mg (cohort 2), 25 mg (cohort 3), 50 mg (cohort 4), 100 mg (cohort 5), 200 mg (cohort 6), and 300 mg (cohort 7) of the Maleate Salt. In each cohort, there were 6 active- and 2 placebo-treated subjects. Subjects were administered the Maleate Salt in the fasting state with 1 exception: subjects in the 25 mg cohort (cohort 3) received the Maleate Salt while fasting and again after a high-fat breakfast to determine food effect on PK.
Mean plasma concentration-time profiles for 3-((1-cyclohexyl-4-oxo-8-(4-oxo-4-phenylbutyl)-1,3,8-triazaspiro[4.5]decan-3-yl)methyl)benzoic acid (hereinafter, “the Compound”) following a single PO dose of the Maleate Salt are shown in FIG. 1.
In evaluating food effect on the PK of the Maleate Salt, subjects on Day 1 in cohort 3 were administered a single dose of the Maleate Salt at 25 mg or placebo in the fasted state. On Day 3, the same subjects received an identical dose 30 minutes after consumption of a standardized, high-fat, high-calorie breakfast.

[2] = Phase I multiple-ascending dose (MAD) pharmacokinetics, BID Days 1-4 and single morning dose Day 5; type: in vivo, human; details: for Tlast / Cmax / Tmax / half-life / AUC / concentration at 12 h / concentration at 24 h: fasting; for Cav, ss / Cmin / Tmin / AI: steady state; for AI: Day 5, mean; for Cmax / Tmax / half-life / AUC / concentration at 12 h / concentration at 24 h: human, plasma; for Cmax / Tmax / half-life / AUC: po; for AUC: read-out: AUC12; for concentration at 12 h / concentration at 24 h: read-out: Clast
Experimental: as §1, §2, §3
The MAD phase had 2 cohorts dosed at 50 and 100 mg of the Maleate Salt. In each cohort, there were 6 active- and 2 placebo-treated subjects. The Maleate Salt was administered to fasting subjects BID (morning and evening) on Days 1 through 4 and as a single morning dose on Day 5.
On Day 1, mean T1/2 was approximately 2 h for both 50 and 100 mg BID doses. On Day 5, mean T1/2 was 11.0 and 6.2 h following 50 and 100 mg BID doses, respectively. For T1/2 determination, the plasma samples for Day 1 were only collected to 12 h, whereas the plasma samples for Day 5 were collected to 24 h.

D2 receptor = biological target: T1, D2 receptor (Homo sapiens, UniProt P14416); experiment: Clinical PD: serum prolactin concentration as marker of pharmacologic activity (D2 receptor target engagement); type: in vivo
T1 construct: from tissue; host or cells: healthy human subjects in vivo (lactotroph cells of the anterior pituitary gland)
Experimental: as §1
In the same phase I study, serum prolactin concentrations were evaluated as a marker of pharmacologic activity (D2 receptor target engagement). Prolactin is primarily secreted from lactotroph cells of the anterior pituitary gland, and the release of prolactin from these cells is under inhibitory control by DA. Fitzgerald and Dinan, J. Psychopharmacol. 2008, 22, 12-19.
The increases were substantial compared to placebo. The prolactin response was maximal at the 10 mg dose of the Maleate Salt in the SAD phase.

[3] = po, 5 mg, single PO dose 5 mg, fasted, healthy subjects
[4] = po, 10 mg, single PO dose 10 mg, fasted, healthy subjects
[5] = po, 25 mg, single PO dose 25 mg, fasted, healthy subjects
[6] = po, 25 mg, single PO dose 25 mg, fed (high-fat breakfast), healthy subjects
[7] = po, 50 mg, single PO dose 50 mg, fasted, healthy subjects
[8] = po, 100 mg, single PO dose 100 mg, fasted, healthy subjects
[9] = po, 200 mg, single PO dose 200 mg, fasted, healthy subjects
[10] = po, 300 mg, single PO dose 300 mg, fasted, healthy subjects

T1 sequence (P14416 whole entry): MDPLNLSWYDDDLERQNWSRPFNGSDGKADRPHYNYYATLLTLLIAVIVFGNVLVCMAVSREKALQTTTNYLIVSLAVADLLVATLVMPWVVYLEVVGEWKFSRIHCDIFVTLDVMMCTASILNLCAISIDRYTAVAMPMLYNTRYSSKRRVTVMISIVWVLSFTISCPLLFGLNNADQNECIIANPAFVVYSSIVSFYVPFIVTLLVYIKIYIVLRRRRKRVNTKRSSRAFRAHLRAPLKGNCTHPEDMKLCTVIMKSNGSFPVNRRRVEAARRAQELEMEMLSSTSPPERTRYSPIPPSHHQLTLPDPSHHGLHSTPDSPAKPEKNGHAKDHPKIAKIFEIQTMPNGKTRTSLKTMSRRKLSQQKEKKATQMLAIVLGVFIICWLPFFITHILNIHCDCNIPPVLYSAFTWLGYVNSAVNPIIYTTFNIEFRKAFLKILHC

## O=C(O)c1cccc(CN2CN(C3CCCCC3)C3(CCN(CCCC(=O)c4ccccc4)CC3)C2=O)c1 [Compound 1, 3-((1-cyclohexyl-4-oxo-8-(4-oxo-4-phenylbutyl)-1,3,8-triazaspiro[4.5]decan-3-yl)methyl)benzoic acid]
[1]; single PO dose, over 24 h
  Plasma concentration-time profile: rapid absorption and rapid elimination
[2]; MAD phase, 50 or 100 mg BID
  Plasma concentration-time profile: rapid absorption and rapid elimination

## O=C(O)c1cccc(CN2CN(C3CCCCC3)C3(CCN(CCCC(=O)c4ccccc4)CC3)C2=O)c1 [the Maleate Salt, 3-((1-cyclohexyl-4-oxo-8-(4-oxo-4-phenylbutyl)-1,3,8-triazaspiro[4.5]decan-3-yl)methyl)benzoic acid maleate]
[1]; 25 mg single dose, high-fat meal prior to dosing vs fasted
  Food effect on Tmax: did not alter Tmax
[1]; SAD phase, fasted conditions, 5-300 mg
  Exposure versus dose administered: approximately proportional to the dose administered
[1]; oral, across all cohorts in the SAD phase, read-out: Arithmetic mean T1/2 in fasted subjects (converted)
  half-life: ~4 h
[1]; [3]
  AUC(0-inf): 4.5 ng·h/mL
  AUC(0-t): 4.3 ng·h/mL
  Cmax: 2.1 ng/mL
[1]; po, 5 mg, single PO dose 5 mg, fasted, healthy subjects, read-out: T1/2 (converted)
  half-life: ~1.6 h
[1]; po, 5 mg, single PO dose 5 mg, fasted, healthy subjects, read-out: Tmax
  Tmax: 0.83 h
[1]; [4]
  AUC(0-inf): 13.1 ng·h/mL
  AUC(0-t): 12.9 ng·h/mL
  Cmax: 6.2 ng/mL
[1]; po, 10 mg, single PO dose 10 mg, fasted, healthy subjects, read-out: T1/2 (converted)
  half-life: ~1.6 h
[1]; po, 10 mg, single PO dose 10 mg, fasted, healthy subjects, read-out: Tmax
  Tmax: 1.21 h
[1]; [5]
  AUC(0-inf): 30.4 ng·h/mL
  AUC(0-t): 30.5 ng·h/mL
  Cmax: 10.5 ng/mL
[1]; po, 25 mg, single PO dose 25 mg, fasted, healthy subjects, read-out: T1/2 (converted)
  half-life: 6 h
[1]; po, 25 mg, single PO dose 25 mg, fasted, healthy subjects, read-out: Tmax
  Tmax: 1.8 h
[1]; [6]
  AUC(0-inf): 17.2 ng·h/mL
  AUC(0-t): 17.6 ng·h/mL
  Cmax: 6.7 ng/mL
[1]; po, 25 mg, single PO dose 25 mg, fed (high-fat breakfast), healthy subjects, read-out: T1/2 (converted)
  half-life: 7 h
[1]; po, 25 mg, single PO dose 25 mg, fed (high-fat breakfast), healthy subjects, read-out: Tmax
  Tmax: 2.2 h
[1]; [7]
  AUC(0-inf): 56.7 ng·h/mL
  AUC(0-t): 53.2 ng·h/mL
  Cmax: 22 ng/mL
[1]; po, 50 mg, single PO dose 50 mg, fasted, healthy subjects, read-out: T1/2 (converted)
  half-life: 3.1 h
[1]; po, 50 mg, single PO dose 50 mg, fasted, healthy subjects, read-out: Tmax
  Tmax: 1.04 h
[1]; [8]
  AUC(0-inf): 180 ng·h/mL
  AUC(0-t): 104 ng·h/mL
  Cmax: 48.3 ng/mL
[1]; po, 100 mg, single PO dose 100 mg, fasted, healthy subjects, read-out: T1/2 (converted)
  half-life: 5.4 h
[1]; po, 100 mg, single PO dose 100 mg, fasted, healthy subjects, read-out: Tmax
  Tmax: 1.78 h
[1]; [9]
  AUC(0-inf): 242 ng·h/mL
  AUC(0-t): 240 ng·h/mL
  Cmax: 106 ng/mL
[1]; po, 200 mg, single PO dose 200 mg, fasted, healthy subjects, read-out: T1/2 (converted)
  half-life: 5.4 h
[1]; po, 200 mg, single PO dose 200 mg, fasted, healthy subjects, read-out: Tmax
  Tmax: 1.24 h
[1]; [10]
  AUC(0-inf): 446 ng·h/mL
  AUC(0-t): 421 ng·h/mL
  Cmax: 192 ng/mL
[1]; po, 300 mg, single PO dose 300 mg, fasted, healthy subjects, read-out: T1/2 (converted)
  half-life: 5.1 h
[1]; po, 300 mg, single PO dose 300 mg, fasted, healthy subjects, read-out: Tmax
  Tmax: 1.88 h
[1]; po, 25 to 300 mg dose levels, single PO dose, read-out: Arithmetic mean T1/2 in fasted subjects (converted)
  half-life: 3.1 to 6 h
[1]; po, SAD phase, single PO doses, read-out: Median Tmax
  Tmax: ~1.1 h
[2]; 50 mg BID PO, Day 1
  Tlast: 12.0 h
  concentration at 12 h: 0.2 ng/mL
[2]; 50 mg BID PO, Day 5
  Tlast: 24.0 h
  Cav, ss: 4.84 ng/mL
  Cmin: 0.32 ng/mL
  Tmin: 8.0 h
  concentration at 24 h: 0.18 ng/mL
[2]; 50 mg BID PO
  AI: 1.89
[2]; 100 mg BID PO, Day 1
  Tlast: 12.0 h
  concentration at 12 h: 0.42 ng/mL
[2]; 100 mg BID PO, Day 5
  Tlast: 24.0 h
  Cav, ss: 16.71 ng/mL
  Cmin: 0.65 ng/mL
  Tmin: 4.8 h
  concentration at 24 h: 0.28 ng/mL
[2]; 100 mg BID PO
  AI: 1.38
[2]; 50 or 100 mg BID dosing
  Accumulation for AUC12: less than 30%
  Accumulation for Cmax: less than 40%
[2]; 50 mg, 50 mg BID PO, Day 1
  Cmax: 23.3 ng/mL
  Tmax: 1.55 h
  AUC: 53.6 ng·h/mL
[2]; 50 mg, 50 mg BID PO, Day 1 (samples collected to 12 h)
  half-life: ~2 h
[2]; 50 mg, 50 mg BID PO, Day 5
  Cmax: 31.2 ng/mL
  Tmax: 1.17 h
  AUC: 58.1 ng·h/mL
[2]; 50 mg, 50 mg BID PO, Day 5 (samples collected to 24 h)
  half-life: 11 h
[2]; 100 mg, 100 mg BID PO, Day 1
  Cmax: 71.5 ng/mL
  Tmax: 1.03 h
  AUC: 152 ng·h/mL
[2]; 100 mg, 100 mg BID PO, Day 1 (samples collected to 12 h)
  half-life: ~2 h
[2]; 100 mg, 100 mg BID PO, Day 5
  Cmax: 71.6 ng/mL
  Tmax: 1.53 h
  AUC: 200 ng·h/mL
[2]; 100 mg, 100 mg BID PO, Day 5 (samples collected to 24 h)
  half-life: 6.2 h
D2 receptor; MAD phase, after BID dosing for 5 days
  Accumulation in serum prolactin: little if any accumulation
D2 receptor; SAD phase
  Dose at which the prolactin response was maximal: 10 mg
D2 receptor; across all 48 single-dose administrations
  Median serum prolactin Tmax: approximately 1.1 h
D2 receptor; following oral administration
  Increases in serum prolactin compared to placebo: substantial
D2 receptor; following oral administration, SAD and MAD phases
  Serum prolactin concentration: increased rapidly
